In patent publication US20130317037A1, “METHOD OF ADMINISTRATION AND TREATMENT” (GlaxoSmithKline Intellectual Property Development Limited, priority 2010, published 2013):

How the values were obtained:
Type in all cases: cell-based
MDAMB134 = assay: cells
Protocol: (§1) From the stock concentration, 8 serial dilutions (1:5) were made with DMSO.
(§2) Day −1: Plate cells in 100 μl volume in 96 well plate. • Note: Cell number seeded adjusted for growth characteristics, so that at time of assay for proliferation following three-day drug treatment, the control wells should still be in log-growth phase (sub-confluent). Day 0: Drug added to plate for treatment. • A time 0 plate was processed for the proliferation assay to establish a baseline reading at time when drug was added.
(§3) LBNL are following the protocols set up by the NCI/NIH DTP Human Tumor Cell Line Screen Process (http://dtp.nci.nih.gov/branches/btb/ivclsp.html) and summarized below.
(§4) [(Ti−Tz)/(C−Tz)]×100 for concentrations for which Ti>/=Tz
(§5) [(Ti−Tz)/(C−Tz)]×100=50, • which is the drug concentration resulting in a 50% reduction in the net growth in control cells during the drug incubation. TGI: Total growth inhibition is calculated from
(§6) Ti=Tz. • The drug concentration resulting in total growth inhibition (down to the ‘time 0’ baseline). LC50: Net loss of cell growth at 50% is calculated from
(§7) [(Ti−Tz)/Tz]×100=−50. • The concentration of drug resulting in a 50% reduction in the cell number at the end of the drug treatment as compared to that at the beginning (time 0) indicating a net loss of cells following treatment.
(§8) Values are calculated for each of these three parameters if the level of activity is reached; however, if the effect is not reached or is exceeded, the value for that parameter is expressed as greater or less than the maximum or minimum concentration tested.

T47D = assay: cells
Protocol: as §1, §2, §3, §4, §5, §6, §7, §8

HCC38 = assay: cells
Protocol: as §1, §2, §3, §4, §5, §6, §7, §8

ZR751 = assay: cells
Protocol: as §1, §2, §3, §4, §5, §6, §7, §8

HCC1500 = assay: cells
Protocol: as §1, §2, §3, §4, §5, §6, §7, §8

HCC1428 = assay: cells
Protocol: as §1, §2, §3, §4, §5, §6, §7, §8

MX-1 = assay: cells
Protocol: as §1, §2, §3, §4, §5, §6, §7, §8

HCC1954 = assay: cells
Protocol: as §1, §2, §3, §4, §5, §6, §7, §8

HCC1395 = assay: cells
Protocol: as §1, §2, §3, §4, §5, §6, §7, §8

184A1 = assay: in vitro
Protocol: as §1, §2, §3, §4, §5, §6, §7, §8

MDAMB361 = assay: cells
Protocol: as §1, §2, §3, §4, §5, §6, §7, §8

SUM1315MO2 = assay: cells
Protocol: as §1, §2, §3, §4, §5, §6, §7, §8

HCC1937 = assay: cells
Protocol: as §1, §2, §3, §4, §5, §6, §7, §8

CAMA1 = assay: cells
Protocol: as §1, §2, §3, §4, §5, §6, §7, §8

MDAMB175VII = assay: cells
Protocol: as §1, §2, §3, §4, §5, §6, §7, §8

SUM225CWN = assay: cells
Protocol: as §1, §2, §3, §4, §5, §6, §7, §8

SUM229PE = assay: cells
Protocol: as §1, §2, §3, §4, §5, §6, §7, §8

ZR75B = assay: cells
Protocol: as §1, §2, §3, §4, §5, §6, §7, §8

BT474 = assay: cells
Protocol: as §1, §2, §3, §4, §5, §6, §7, §8

MDAMB415 = assay: cells
Protocol: as §1, §2, §3, §4, §5, §6, §7, §8

SUM149PT = assay: cells
Protocol: as §1, §2, §3, §4, §5, §6, §7, §8

[1] = Homo sapiens, 50% net loss of cells vs time 0, read-out: LC50 (the source's name)
[2] = Homo sapiens, 72 h, three-day drug treatment, read-out: gIC50

SMILES: COc1ncc(-c2ccc3nccc(-c4ccnnc4)c3c2)cc1NS(=O)(=O)c1ccc(F)cc1F [Compound B, 2,4-difluoro-N-{2-(methyloxy)-5-[4-(4-pyridazinyl)-6-quinolinyl]-3-pyridinyl}benzenesulfonamide]
- IC50 (MDAMB134; Homo sapiens, 72 h, MDAMB134, three-day drug treatment, read-out: gIC50): 13.2 nM
- CC50 (MDAMB134; Homo sapiens, MDAMB134, 50% net loss of cells vs time 0, read-out: LC50 (the source's name)): 224 nM
- TGI (MDAMB134; MDAMB134, total growth inhibition): 60.3 nM
- CC50 (T47D; [1]): 1000 nM
- IC50 (T47D; [2]): 3.7 nM
- TGI (T47D; total growth inhibition): 19.1 nM
- TGI (HCC38; HCC38, total growth inhibition): 158.5 nM
- IC50 (HCC38; Homo sapiens, 72 h, HCC38, three-day drug treatment, read-out: gIC50): 55 nM
- CC50 (HCC38; Homo sapiens, HCC38, 50% net loss of cells vs time 0, read-out: LC50 (the source's name)): 355 nM
- IC50 (ZR751; Homo sapiens, ZR-75-1, 72 h, ZR751, three-day drug treatment, read-out: gIC50): 10.5 nM
- CC50 (ZR751; Homo sapiens, ZR-75-1, ZR751, 50% net loss of cells vs time 0, read-out: LC50 (the source's name)): 248 nM
- TGI (ZR751; ZR751, total growth inhibition): 30.2 nM
- TGI (HCC1500; HCC1500, total growth inhibition): 371.5 nM
- IC50 (HCC1500; Homo sapiens, 72 h, HCC1500, three-day drug treatment, read-out: gIC50): 75.9 nM
- CC50 (HCC1500; Homo sapiens, HCC1500, 50% net loss of cells vs time 0, read-out: LC50 (the source's name)): 6500 nM
- TGI (HCC1428; HCC1428, total growth inhibition): 158.5 nM
- IC50 (HCC1428; Homo sapiens, 72 h, HCC1428, three-day drug treatment, read-out: gIC50): 16.2 nM
- CC50 (HCC1428; Homo sapiens, HCC1428, 50% net loss of cells vs time 0, read-out: LC50 (the source's name)): 5250 nM
- IC50 (MX-1; Homo sapiens, MX1, 72 h, MX-1, three-day drug treatment, read-out: gIC50): 5.2 nM
- CC50 (MX-1; Homo sapiens, MX1, MX-1, 50% net loss of cells vs time 0, read-out: LC50 (the source's name)): 251 nM
- TGI (MX-1; MX-1, total growth inhibition): 20.4 nM
- TGI (HCC1954; HCC1954, total growth inhibition): 32.3 nM
- IC50 (HCC1954; Homo sapiens, 72 h, HCC1954, three-day drug treatment, read-out: gIC50): 14.3 nM
- CC50 (HCC1954; Homo sapiens, HCC1954, 50% net loss of cells vs time 0, read-out: LC50 (the source's name)): 54.2 nM
- TGI (HCC1395; HCC1395, total growth inhibition): 358.6 nM
- IC50 (HCC1395; Homo sapiens, 72 h, HCC1395, three-day drug treatment, read-out: gIC50): 50.3 nM
- CC50 (HCC1395; Homo sapiens, HCC1395, 50% net loss of cells vs time 0, read-out: LC50 (the source's name)): 26700 nM
- TGI (184A1; 184A1, total growth inhibition): 16.3 nM
- IC50 (184A1; Homo sapiens, 72 h, 184A1, three-day drug treatment, read-out: gIC50): 1.6 nM
- IC50 (MDAMB361; Homo sapiens, MDA-MB-361, 72 h, MDAMB361, three-day drug treatment, read-out: gIC50): 1.7 nM
- CC50 (MDAMB361; Homo sapiens, MDA-MB-361, MDAMB361, 50% net loss of cells vs time 0, read-out: LC50 (the source's name)): 26.9 nM
- TGI (MDAMB361; MDAMB361, total growth inhibition): 4.9 nM
- IC50 (SUM1315MO2; Homo sapiens, 72 h, SUM1315MO2, three-day drug treatment, read-out: gIC50): 10 nM
- CC50 (SUM1315MO2; Homo sapiens, SUM1315MO2, 50% net loss of cells vs time 0, read-out: LC50 (the source's name)): 8880 nM
- TGI (SUM1315MO2; SUM1315MO2, total growth inhibition): 158.3 nM
- TGI (HCC1937; HCC1937, total growth inhibition): 321.7 nM
- IC50 (HCC1937; Homo sapiens, 72 h, HCC1937, three-day drug treatment, read-out: gIC50): 25.4 nM
- CC50 (HCC1937; Homo sapiens, HCC1937, 50% net loss of cells vs time 0, read-out: LC50 (the source's name)): ≥ 33000 nM
- TGI (CAMA1; CAMA1, total growth inhibition): 239.9 nM
- IC50 (CAMA1; Homo sapiens, CAMA-1, 72 h, CAMA1, three-day drug treatment, read-out: gIC50): 89.1 nM
- CC50 (CAMA1; Homo sapiens, CAMA-1, CAMA1, 50% net loss of cells vs time 0, read-out: LC50 (the source's name)): 537 nM
- CC50 (MDAMB175VII; Homo sapiens, MDA-MB-175-VII, 50% net loss of cells vs time 0, read-out: LC50 (the source's name)): 501 nM
- IC50 (MDAMB175VII; Homo sapiens, MDA-MB-175-VII, 72 h, three-day drug treatment, read-out: gIC50): 4.4 nM
- TGI (MDAMB175VII; total growth inhibition): 13.5 nM
- CC50 (SUM225CWN; [1]): 436 nM
- IC50 (SUM225CWN; [2]): 1.6 nM
- TGI (SUM225CWN; total growth inhibition): 14.8 nM
- CC50 (SUM229PE; [1]): 126 nM
- IC50 (SUM229PE; [2]): 2.5 nM
- TGI (SUM229PE; total growth inhibition): 17.4 nM
- CC50 (ZR75B; Homo sapiens, ZR-75B, 50% net loss of cells vs time 0, read-out: LC50 (the source's name)): > 33000 nM
- IC50 (ZR75B; Homo sapiens, ZR-75B, 72 h, three-day drug treatment, read-out: gIC50): 4.5 nM
- TGI (ZR75B; total growth inhibition): 43.4 nM
- TGI (BT474; BT474, total growth inhibition): 20.1 nM
- IC50 (BT474; Homo sapiens, BT-474, 72 h, BT474, three-day drug treatment, read-out: gIC50): 4.8 nM
- CC50 (BT474; Homo sapiens, BT-474, BT474, 50% net loss of cells vs time 0, read-out: LC50 (the source's name)): 119 nM
- IC50 (MDAMB415; Homo sapiens, MDA-MB-415, 72 h, MDAMB415, three-day drug treatment, read-out: gIC50): 20.8 nM
- CC50 (MDAMB415; Homo sapiens, MDA-MB-415, MDAMB415, 50% net loss of cells vs time 0, read-out: LC50 (the source's name)): 528 nM
- TGI (MDAMB415; MDAMB415, total growth inhibition): 117.7 nM
- CC50 (SUM149PT; [1]): 2600 nM
- IC50 (SUM149PT; [2]): 20.6 nM
- TGI (SUM149PT; total growth inhibition): 862.2 nM
